Consider 27 compounds from paper PMC6361841, “Repurposing of Drugs as Novel Influenza Inhibitors From Clinical Gene Expression Infection Signatures” (Frontiers in Immunology, 2019).

Assay [1] concerns A/Lyon/969/09 (H1N1)pdm09 virus. In words: microbe, parasite or virus in culture. Type of assay: cell-based, influenza A(H1N1)pdm09 virus.
In assay [2] the test system is influenza A/Quebec/144147/09 (H1N1)pdm09 virus. In kind it is in vivo, C57BL/6N mice. To be noted: […]; for Survival: mg/kg/day: oseltamivir 10, monensin 10, diltiazem 90, etilefrine 3.
For assay [3] the test system is unchanged. In kind it is in vivo, C57BL/6N mice. As to conditions: for Clinical benefit in terms of survival vs saline (placebo) group: mg/kg/day: oseltamivir 10, monensin 10, diltiazem 90, etilefrine 3, lanatoside C 100, prednisolone 5, flucytosine 240, felbinac 5, timolol 50; for Weight loss vs saline (placebo) group: oseltamivir 10, diltiazem 90, etilefrine 3 mg/kg/day.

Assay [4] deals with B/Massachusetts/2/2106. In words: Antiviral efficacy in A549 cells, B strain. In kind it is cell-based, influenza virus.
For assay [5], the system named is A(H1N1)pdm09 virus. In kind it is cell-based, influenza virus. To be noted: for Viral titer, Dilution #2: virus 10^5 TCID50/mL pre-incubated 1 h; for Viral titer, Dilution #2 / Viral titer, Dilution #1: diltiazem 9 µM, etilefrine 18 µM, oseltamivir 1 µM; for Viral titer, Dilution #1: virus 10^6 TCID50/mL pre-incubated 1 h; for Mean relative Viral production: virus pre-incubated 1 h, relative to PBS control.

For assay [6], the system named is A/Texas/126/2016 (H3N2). In words: Antiviral efficacy in A549 cells, H3N2 strain. Type of assay: cell-based, influenza virus.
The subject of assay [7] is influenza A/Lyon/969/09 (H1N1)pdm09 virus. Type of assay: cell-based.
Assay [8] has as its system MucilAir® human airway epithelium. Type of assay: cell-based.
Assay [9] has as its system A/Lyon/969/09 (H1N1)pdm09 virus. In words: microbe, parasite or virus in culture. Type of assay: cell-based, influenza A(H1N1)pdm09 virus. To be noted: Influenza A virus, 6 h pre-treatment only, A549, Figure 2B.
The mark [10] stands for this setting: Influenza A virus, H1N1, 48 h, pre-treatment/treatment in vitro, A549, […], read-out: EC50.
Where [11] appears, read: pre-treatment/treatment in vitro, A549, […], read-out: EC50.
Setting [12] is: 24 h p.i., oseltamivir 0.1 µM, diltiazem 9 µM or both.
Where [13] appears, read: 48 h p.i., oseltamivir 0.1 µM, diltiazem 9 µM or both.
Where [14] appears, read: 96 h p.i., oseltamivir 0.1 µM, diltiazem 9 µM or both.
Where [15] appears, read: oseltamivir 1 μM, diltiazem 90 μM.

Counter-ions that a name gives are not always drawn. Like-named read-outs stand apart in the source and are kept apart here.

A word on the EC50: it is the concentration at which the effect is half-maximal. Take `CCN(CC)CCOC(=O)C(c1ccccc1)c1ccccc1` [Adiphenine]: the concentration for a half-maximal effect (EC50) in assay [1] (setting [10]) came to 6.29 nM.
Regarding `N=C(N)NC(=O)c1nc(Cl)c(N)nc1N` [Amiloride], in [1] (setting [10]), the EC50 turned out to be 0.41 nM.
`O=c1cc(-c2ccc(O)cc2)oc2cc(O)cc(O)c12` [Apigenin]: the EC50 in assay [1] (setting [10]) came out at 0.21 nM.
For the compound `CC1(C)S[C@@H]2[C@H](NC(=O)Cc3ccccc3)C(=O)N2[C@H]1C(=O)O` [Benzathin Benzylpenicilline, Benzathine benzylpenicillin], the half-maximal effective concentration (EC50) in assay [1] (setting [11]) amounted to 0.26 nM.
Take `OC(CCN1CCCCC1)(c1ccccc1)C1CC2C=CC1C2` (stereo not drawn) [Biperiden]: the EC50 in assay [1] (setting [10]) was 0.38 nM.
Consider `O=NN(CCCl)C(=O)NCCCl` [Carmustine], for which the EC50 in assay [1] (setting [10]) is 0.07 nM.
With `CN(C)CCN(Cc1ccc(Cl)cc1)c1ccccn1` [Choropyramine, Chloropyramine], the EC50 in [1] (setting [10]) amounted to 0.07 nM.
With `CCCCCCC[N+](CC)(CC)CCCCc1ccc(Cl)cc1` [Clofilium tosylate], the half-maximal effective concentration (EC50) in assay [1] (setting [11]) amounted to 0.16 nM.
In assay [2], `CCNCC(O)c1cccc(O)c1` (stereo not drawn) [Etilefrine] showed a Survival of 50%. Besides, in assay [3], the “Clinical benefit in terms of survival vs saline (placebo) group” value (shortened to “Clinical benefit … vs saline (placebo) group”) is listed as “significantly improved survival” and the “Weight loss vs saline (placebo) group” value is given as “significantly improved”. Also, in [3] (mouse, in vivo), the “Reduction in lung viral titers (LVTs) on day 5 p.i.” value is recorded as “at least 1 log”. In assay [4] (dose CMAP), the “Relative Viral production” value is listed as 7.3 % of mock-treated and the Viral titer was 3.97 log TCID50/ml. Further, in assay [4] (dose CMAP/10), the “Relative Viral production” value is on record as 15.0 % of mock-treated and the Viral titer is reported as 4.3 log TCID50/ml. For the same compound, the “Effect of virus pre-incubation on final viral titers vs PBS-incubated controls” value in assay [5] (pre-incubation before infection) is given as “did not affect final viral titers”. Moreover, in [5], the “Viral titer, Dilution #2” value was determined as 4.63 log TCID50/ml; the “Viral titer, Dilution #1” value is 5.30 log TCID50/ml; the “Mean relative Viral production” value is 100.0 % of mock-treated. Also, the EC50 in assay [1] (setting [10]) came to 0.34 nM. Also, in assay [6] (dose CMAP), the “Relative Viral production” value is listed as 1 % of mock-treated and the Viral titer is listed as 3.63 log TCID50/ml. In addition, in assay [6] (dose CMAP/10), the “Relative Viral production” value is 14.7 % of mock-treated and the Viral titer is 4.8 log TCID50/ml.
With `O=C(O)Cc1ccc(-c2ccccc2)cc1` [Felbinac], the “Clinical benefit … vs saline (placebo) group” value in [3] was “no clinical benefit”. Further, the 50% effective concentration (EC50) in assay [1] (setting [10]) came to 34.4 nM.
Regarding `Nc1[nH]c(=O)ncc1F` [Flucytosine], in assay [3], the “Clinical benefit … vs saline (placebo) group” value is on record as “no clinical benefit”. Further, the half-maximal effective concentration (EC50) in assay [1] (setting [10]) turned out to be 2.02 nM.
For the compound `Nc1nc(=O)c2nc(CNc3ccc(C(=O)N[C@@H](CCC(=O)O)C(=O)O)cc3)cnc2[nH]1` [Folic acid], the EC50 in assay [1] (setting [10]) is 0.22 nM.
`CC(=O)O[C@H]1C[C@@]2(C)[C@@H](C[C@@H](O)[C@H]3[C@@]4(C)CC[C@@H](O)[C@@H](C)[C@@H]4CC[C@@]32C)/C1=C(\CCC=C(C)C)C(=O)O` [Fusidic acid]: in assay [1] (setting [10]), the EC50 was 0.038 nM.
Consider `O=c1c(-c2ccc(O)cc2)coc2cc(O)cc(O)c12` [Genistein], for which the EC50 in assay [1] (setting [10]) worked out at 1.06 nM.
Take `CNC(C)C1CCC(N)C(OC2C(N)CC(N)C(OC3OCC(C)(O)C(NC)C3O)C2O)O1` (stereo not drawn) [Gentamycin, Gentamicin]: the EC50 in [1] (setting [10]) worked out at 0.039 nM.
As for `CC(=O)O[C@H]1C[C@H](O[C@H]2[C@@H](O)C[C@H](O[C@H]3[C@@H](O)C[C@H](O[C@H]4CC[C@@]5(C)[C@H](CC[C@@H]6[C@@H]5C[C@@H](O)[C@]5(C)[C@@H](C7=CC(=O)OC7)CC[C@]65O)C4)O[C@@H]3C)O[C@@H]2C)O[C@H](C)[C@H]1O[C@@H]1O[C@H](CO)[C@@H](O)[C@H](O)[C@H]1O` [Lanatoside C], in assay [3], the “Clinical benefit … vs saline (placebo) group” value is “no clinical benefit”.
Turning to `CCOC(=O)C1=C[C@@H](OC(CC)CC)[C@H](NC(C)=O)[C@@H](N)C1` [Oseltamivir], the Survival result in [2] is listed as “completely prevented mortality”. Further, the “Mice rescued from death” value in [2] (oseltamivir 10 mg/kg/day, diltiazem 90 mg/kg/day) amounted to 40%. Besides, the Weight loss result in [2] (oseltamivir 10, monensin 10, diltiazem 90 mg/kg/day) is recorded as “reduced weight loss”. For the same compound, in assay [3], the “Clinical benefit … vs saline (placebo) group” value is on record as “clinical improvement”. In addition, the “Weight loss vs saline (placebo) group” value in assay [3] is reported as “clinical improvement”. The “Apical viral titer log TCID50/ml (CI95)” value is recorded as 6.02 (4.69 – 7.35) log TCID50/ml in [7] (setting [12]); 8.61 (7.43 – 9.80) log TCID50/ml in [7] (setting [13]); 8.30 (7.73 – 8.87) log TCID50/ml in assay [7] (72 h p.i., oseltamivir 0.1 µM, diltiazem 9 µM or both); 7.80 (6.56 – 9.04) log TCID50/ml in assay [7] (setting [14]); 7.09 (5.79 – 8.40) log TCID50/ml in assay [7] (96 h p.i., oseltamivir 1 µM, diltiazem 90 µM or both). For the same compound, the “Effect on viral replication vs untreated control” value in assay [7] (oseltamivir 0.1 μM, diltiazem 9 μM (CMAP) or both, from 5 h p.i., once daily 5 days) is given as “no significant advantage over the untreated control”. Moreover, the “Reduction in apical viral titers at 48 h p.i. compared to the untreated control” value in assay [7] (setting [15]) was over 3 log. In addition, the “Virus on the basolateral medium” value in assay [7] (setting [15]) is “No virus was detected”. For the same compound, the “Delay of the peak of viral production” value in assay [7] (oseltamivir 1 μM, diltiazem 90 μM (10-fold CMAP)) worked out at 24 h. Further, the “Reduction in apical peak viral titers compared to the untreated control” value in assay [7] (oseltamivir 1 μM, diltiazem 90 μM or both, 48 h p.i. untreated vs. 72 h p.i. treated) was over 2 log. For the same compound, the “Δ TEER (CI95)” value was 8.98 (-81.72 – 99.68) Ohm/cm^2 in assay [8] (setting [12]); -24.32 (-58.00 – 9.36) Ohm/cm^2 in assay [8] (24 h p.i., oseltamivir 1 µM, diltiazem 90 µM or both); 20.09 (-39.75 – 79.94) Ohm/cm^2 in [8] (setting [13]); 7.26 (-85.73 – 100.3) Ohm/cm^2 in assay [8] (48 h p.i., oseltamivir 1 µM, diltiazem 90 µM or both); -209.2 (-271.5 – -146.8) Ohm/cm^2 in assay [8] (setting [14]). The “TEER during the time-course of infection” value in [8] (oseltamivir 1 μM, diltiazem 90 μM or both) is recorded as “stabilized TEER”. In [5], the “Viral titer, Dilution #2” value was 4.30 log TCID50/ml. For the same compound, the “Viral titer, Dilution #1” value in assay [5] is 5.63 log TCID50/ml. Further, the “Mean relative Viral production” value in assay [5] is given as 130.3 % of mock-treated.
For `CC(C)NCC(O)COc1cccc2[nH]ccc12` (stereo not drawn) [Pindolol], in assay [1] (setting [10]), the concentration giving a half-maximal response (EC50) was 0.79 nM.
Turning to `CNC(=C[N+](=O)[O-])NCCSCc1ccc(CN(C)C)o1` [Ranitidine], the figures for the EC50 in assay [9] and in [1] (setting [10]) were 1100 nM and 0.68 nM, respectively.
Consider `NC(=O)c1ncn([C@@H]2O[C@H](CO)[C@@H](O)[C@H]2O)n1` [Ribavirin], for which the midpoint of the response in assay [1] (Influenza A virus, H1N1, A549, 48 h), the EC50, lay at 0.86 nM.
With `CC[C@H]1OC(=O)[C@H](C)[C@@H](O[C@H]2C[C@@](C)(OC)[C@@H](O)[C@H](C)O2)[C@H](C)[C@@H](O[C@@H]2O[C@H](C)C[C@H](N(C)C)[C@H]2O)[C@](C)(O)C[C@@H](C)/C(=N\OCOCCOC)[C@H](C)[C@@H](O)[C@]1(C)O` [Roxythromycin, Roxithromycin], in [1] (setting [10]), the concentration for a half-maximal effect (EC50) turned out to be 0.14 nM.
Turning to `COc1cc(NS(=O)(=O)c2ccc(N)cc2)nc(OC)n1` [Sulfadimethoxine], the EC50 in assay [1] (setting [10]) worked out at 0.69 nM.
Regarding `COc1cc(NS(=O)(=O)c2ccc(N)cc2)ncn1` [Sulfamonomethoxine], in assay [1] (setting [10]), the EC50 was determined as 0.28 nM.
Regarding `CC(C)(C)NC[C@H](O)COc1nsnc1N1CCOCC1` [Timolol], in assay [3], the “Clinical benefit … vs saline (placebo) group” value is reported as “no clinical benefit”.
With `c1ccc(CC2=NCCN2)cc1` [Tolazoline], the half-maximal effective concentration (EC50) in assay [1] (setting [10]) is 0.93 nM.
Same read-out and setting: in the case of `C[C@H](CCC(=O)O)[C@H]1CC[C@H]2[C@@H]3[C@@H](O)C[C@@H]4C[C@H](O)CC[C@]4(C)[C@H]3CC[C@]12C` [Urseodeoxycholic acid, Ursodeoxycholic acid] it was 0.61 nM.
Take `C[C@]12C=CC(=O)C=C1CC[C@@H]1[C@@H]2[C@@H](O)C[C@@]2(C)[C@H]1CC[C@]2(O)C(=O)CO` [prednisolone]: in assay [3], the “Clinical benefit … vs saline (placebo) group” value is “no clinical benefit”.
